From patent US20210292315A1, “SELENIUM-CONTAINING ISOXAZOLAMINE COMPOUND, PREPARATION METHOD THEREFOR, AND USE THEREOF” (SHANGHAI XINGYE PHARMACEUTICAL TECHNOLOGY CO., LTD, priority 2018, published 2021)
Read-outs that look alike come from different tables or passages of the source.

What was measured:
TNF-α = TNF-α activity inhibiting assay: LPS-stimulated peripheral blood, TNF-α by ELISA; type: cell-based, human; conditions: LPS 10 ng/mL, 6 hours, diluted peripheral blood from healthy volunteers, read-out: TNF-α inhibition (%)
Description: Methods: Peripheral blood from healthy volunteers was collected with EDTA anticoagulant tubes. After being diluted 5-fold with 1640 medium (Gibco, USA), the blood was added to 96-well cell culture plates (Costar, USA) and then treated with 10 μL solution of the compound of general formula (I) of the present invention in DMSO (Sigma, USA), and the final concentration of DMSO was 0.2%. After incubation for 60 minutes in an incubator at 37° C. under 5% CO2, 10 μL LPS (Sigma, USA) was added to the reaction system, and the final concentration was 10 ng/mL. After further culturing for 6 hours in the incubator at 37° C. under 5% CO2, the supernatant was collected. The content of TNF-α was determined by ELISA (BD Biosciences, USA). Absorbance was detected at OD450 nm with a microplate reader, with GD 650 nm as reference. The control, a solution containing 0.2% DMSO medium, was as 0% inhibition. Raw data and standard curves were recorded. The four-parameter drug inhibition curve was plotted by XL-fit software and the inhibition rate of each compound was calculated.

[1] = molecular target: T1, Thioredoxin Reductase 1 (TrxR1) (Homo sapiens, UniProt Q16881); assay: Thioredoxin reductase 1 (TrxR1) activity inhibiting assay, NADPH consumption at 340 nm; type: biochemical; conditions: insulin/Trx/NADPH system, absorbance 340 nm; read-out: TrxR inhibition IC50
T1 sequence (Q16881 151-649 limits assumed): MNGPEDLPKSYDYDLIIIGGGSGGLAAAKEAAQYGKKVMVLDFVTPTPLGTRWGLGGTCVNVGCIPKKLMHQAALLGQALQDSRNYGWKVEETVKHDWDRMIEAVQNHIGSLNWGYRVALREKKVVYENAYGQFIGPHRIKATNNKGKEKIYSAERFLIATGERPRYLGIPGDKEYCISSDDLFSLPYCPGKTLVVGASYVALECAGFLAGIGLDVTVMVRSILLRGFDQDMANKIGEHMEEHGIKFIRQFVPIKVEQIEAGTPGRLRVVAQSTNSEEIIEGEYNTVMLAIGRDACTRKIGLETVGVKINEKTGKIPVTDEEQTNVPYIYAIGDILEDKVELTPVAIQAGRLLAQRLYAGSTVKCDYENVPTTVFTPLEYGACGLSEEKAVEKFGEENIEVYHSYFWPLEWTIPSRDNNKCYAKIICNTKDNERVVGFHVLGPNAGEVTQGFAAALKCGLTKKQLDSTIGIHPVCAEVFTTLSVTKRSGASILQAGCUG
Description: Working solutions: 0.119 mg/mL of TrxR working solution preparation: 175 μL of TrxR stock solution (0.34 mg/mL) was diluted to 500 μL; 1 mM NADPH working solution preparation, NADPH (5 mg) was dissolved in 12 mL potassium phosphate buffer; 1 mM DTNB working solution preparation: 25 mg DTNB was dissolve in 63 mL DMSO; potassium phosphate buffer system preparation: 0.2 mg/mL bovine serum albumin (BSA) and 1 mM EDTA were added to potassium phosphate buffer at pH 7.4 (K2HPO4/KH2PO4).
Methods: The TrxR1 inhibitory activity study of selenium-containing isoxazolamines in vitro. Insulin, NADPH, Trx, the samples and TrxR1 were added to a microcuvette in order, and subsequently added the work buffer (0.1 mol/L potassium phosphate/2 mmol/L EDTA) to a total volume of 0.5 mL. The concentration of each component in the obtained reaction system is: insulin 130 μmol/L, NADPH […] (Sigma), Trx 4 μmol/L, the added substrate (the selenium-containing isoxazolamines treated samples). After determination of the initial absorption at 340 nm, the enzymatic reaction was started by adding 20 μg extracted TrxR1 proteins, the decrease in absorbance at 340 nm was monitored. One unit of enzymatic activity is defined as the consumption. The activity can be calculated from the extinction coefficient of NADPH, and the unit of enzyme activity is defined as: 1U=ΔA340 nm/min×1000, the TR activity could be calculated with U/L. The results are shown in table 2.

[2] = Glutathione peroxidase (GPx)-like activity assay, coupled NADPH oxidation at 340 nm; type: biochemical; conditions: compound 50 μm, GSH 2.0 mM, pH 7.5, 25° C.; for Initial rate v0, Cum-OOH: peroxide Cum-OOH 1.6 mM; for Initial rate v0, H2O2: peroxide H2O2 1.6 mM; for Initial rate v0, tBuOOH: peroxide tBuOOH 1.6 mM
Description: Method: GPX activity of selenium compounds was assayed by ultraviolet spectrophotometry. Glutathione (2.0 mM), EDTA (1 mM), glutathione disulfide reductase (1.7 units mL^−1), and nicotinamide adenine dinucleotide phosphate […] (NADPH; 0.4 mM) were mixed intopotassium phosphate buffer (0.1 M, pH=7.5). The selenium compounds (50 μm) was added to the above mixture At room temperature (25° C.), and the reaction was started by the addition of H2O2, tBuOOH or Cum-OOH (1.6 mM) respectively. The initial reduction rates were calculated from the rate of NADPH oxidation at 340 nm in a GSH assay. Each initial rate was measured at least three times and calculated from the first 5-10% of the reaction by using 6.22 mM^−1 cm^−1 as the molar extinction coefficient for NADPH. For the peroxidase activity, the rates were corrected for the background reaction between peroxide and thiol.

SMILES	IC50 (TNF-α; Homo sapiens) [µM]	IC50 [1] [µM]	Initial rate v0, Cum-OOH [2] [μm min^−1]	Initial rate v0, H2O2 [2] [μm min^−1]	Initial rate v0, tBuOOH [2] [μm min^−1]	IC50 (TNF-α) [µM]
O=C1CCC(n2[se]c3ccccc3c2=O)C(=O)N1 (stereo not drawn) [Compound 1]	10 to 100	5 to 50	124.5 ± 7.6	109.7 ± 2.1	42.0 ± 3.3	
O=C1CCC(n2[se]c3cccc([N+](=O)[O-])c3c2=O)C(=O)N1 (stereo not drawn) [Compound 2]	1 to 10	5 to 50				
Nc1cccc2[se]n(C3CCC(=O)NC3=O)c(=O)c12 (stereo not drawn) [Compound 3]	< 1					
O=C1CCC(n2[se]c3ccc(F)cc3c2=O)C(=O)N1 (stereo not drawn) [Compound 4]	10 to 100	< 5				
O=C1CCC(n2[se]c3c([N+](=O)[O-])cccc3c2=O)C(=O)N1 (stereo not drawn) [Compound 5]	1 to 10	50 to 100				
Nc1cccc2c(=O)n(C3CCC(=O)NC3=O)[se]c12 (stereo not drawn) [Compound 6]						< 1
O=C1CCC(n2[se]c3cc(F)ccc3c2=O)C(=O)N1 (stereo not drawn) [Compound 7]	10 to 100	< 5	142.2 ± 8.2	128.2 ± 2.0	49.3 ± 5.0	
O=C1CCC(n2[se]c3cc(Cl)ccc3c2=O)C(=O)N1 (stereo not drawn) [Compound 8]	10 to 100	5 to 50				
CC(=O)Nc1cccc2c(=O)n(C3CCC(=O)NC3=O)[se]c12 (stereo not drawn) [Compound 9]	10 to 100	5 to 50				
O=C1CCC(n2[se]c3c(F)cccc3c2=O)C(=O)N1 (stereo not drawn) [Compound 10]	1 to 10	< 5				
COc1cccc2c(=O)n(C3CCC(=O)NC3=O)[se]c12 (stereo not drawn) [Compound 11]						1 to 10
COc1ccc2[se]n(C3CCC(=O)NC3=O)c(=O)c2c1 (stereo not drawn) [Compound 12]	1 to 10	< 5	116.8 ± 7.2	121.7 ± 2.2	54.5 ± 5.7	
COc1cc2[se]n(C3CCC(=O)NC3=O)c(=O)c2cc1OC (stereo not drawn) [Compound 13]	1 to 10	< 5				
COc1cc2c(=O)n(C3CCC(=O)NC3=O)[se]c2c(OC)c1OC (stereo not drawn) [Compound 14]						< 1
Cc1cccc2c(=O)n(C3CCC(=O)NC3=O)[se]c12 (stereo not drawn) [Compound 15]						< 1
N#Cc1cccc2c(=O)n(C3CCC(=O)NC3=O)[se]c12 (stereo not drawn) [Compound 16]	1 to 10	5 to 50				
CC1(C)S[C@@H]2[C@H](n3[se]c4ccccc4c3=O)C(=O)N2[C@H]1C(=O)O [Compound 17]	> 100	< 5				
CC1(C)S[C@@H]2[C@H](n3[se]c4ccc(F)cc4c3=O)C(=O)N2[C@H]1C(=O)O [Compound 18]						> 100
O=c1c2ccccc2[se]n1C12CC3CC(CC(O)(C3)C1)C2 [Compound 19]			34.2 ± 1.5	99.7 ± 1.9	32.3 ± 3.5	10 to 100
O=c1c2cc(F)ccc2[se]n1C12CC3CC(CC(O)(C3)C1)C2 [Compound 20]						10 to 100
O=c1c2ccccc2[se]n1-c1nc2ccccc2s1 [Compound 21]	10 to 100	5 to 50	94.5 ± 4.2	115.3 ± 2.6	35.7 ± 4.2	
O=c1c2ccccc2[se]n1-c1nc2ccc(OC(F)(F)F)cc2s1 [Compound 22]	1 to 10	< 5				
